The target in series [1] is FGFR1 kinase (Homo sapiens (Human), UniProt P11362). The experiment in a line: Enzymologic experiment of FGFR1 (TR-FRET). The series is classed as biochemical. The following applies: FGFR1 kinase activity. In a few lines:
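FGFR1 at 0.1˜5 nM final with substrate peptide 5˜50 nM and ATP 10˜200 μM final, 0.5˜3 h at room temperature. Stopped with EDTA plus labeled antibody for 1 h; TR-FRET signal read at 665 nm, IC50 fitted from inhibition rates.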

In series [2] the test system is SK-HEP-1 cells. The experiment in a line: Inhibition of SK-HEP-1 cell proliferation (CellTiter-Glo). The following applies: Homo sapiens, read-out: SK-HEP-1 IC50. The series is classed as cell-based. In a few lines:
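Cells seeded and allowed to attach 16–24 h, then exposed to serially diluted compound for 72 h at 37 °C, 5% CO2. Viability read by CellTiter-Glo luminescence; IC50 fitted from inhibition rates across concentrations.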

A short description of series [3]: Pharmacokinetic (PK) analysis in rats. The settings on record: SD rats, single intragastric administration, 5 mg/kg; for Peak Time tmax: (sampling in hours); for AUC(0-t) / AUC(0-inf) / half-life / MRT / Cmax: Sprague-Dawley, rat, plasma, po; for AUC(0-t): read-out: Area Under Curve AUC0-t; for AUC(0-inf): read-out: Area Under Curve AUC0-∞; for half-life: read-out: Half-Time t1/2 (converted); for MRT: read-out: Mean Residence Time MRT; for Cmax: read-out: Plasma Concentration Cmax. The series is classed as in vivo, Sprague Dawley (SD) rats. In a few lines: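 Intravenous blood (0.2 ml) was collected into K2EDTA and centrifuged to obtain plasma. Plasma (40 μL) was protein-precipitated with 160 μL acetonitrile. Compound levels were measured by LC/MS/MS on a C18 column using 0.1% formic acid in water and acetonitrile at 0.8 mL/min.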

In series [4] the test system is Hep 3B cells. Briefly: Inhibition of Hep 3B cell proliferation (CellTiter-Glo). The series is classed as cell-based. The settings on record: Homo sapiens, Hep3B.
Series [5] has as its system HuH-7 cells. The experiment in a line: Inhibition of HuH-7 cell proliferation (CellTiter-Glo). In kind it is cell-based. The following applies: Homo sapiens, read-out: HuH-7 IC50. In a few lines:
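HuH-7 cells plated and left 16–24 h, then exposed to serially diluted compound for 72 h at 37 °C, 5% CO2. Viability read by CellTiter-Glo luminescence. IC50 obtained by curve fitting of inhibition rates.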

Series [6] has as its system Hep 3B cell line tumor. The experiment in a line: Pharmacodynamics test in vivo, Hep 3B tumor-bearing nude mice. The settings on record: Mus musculus, Hep3B, oral 30 mg/kg, 2 times/day, read-out: Tumor inhibition rate. The protocol: a, A Hep 3B cell line was taken from the cell bank, and the cells were resuscitated with the MEM culture medium (MEM+10% FBS+1% Glu+1% SP). The cells were placed in the cell culture bottle after resuscitation (cell type, date, and the name of the culturing person were marked on the bottle wall) and were incubated in a CO2 Incubator (the incubator temperature was 37° C., and the CO2 concentration was 5%).
b, The cells were passaged after 80-90% of the bottom of the culture bottle was covered by the cells. After passage, the cells were further incubated in the CO2 incubator. The process was repeated until the number of cells met the pharmacodynamic requirements in vivo.
c, The cultured cells were collected and counted by automatic cell counter. According to the counting results, the cells were resuspended with PBS to prepare a cell suspension (density: 7×10^7/mL), which was placed in the ice box for use.
a, Nude mouse was marked with a disposable universal ear tag for mouse and rat before inoculation, and the skin of the inoculated site was disinfected with 75% medical alcohol.
b, At the time of inoculation, the cell suspension was mixed well, 0.1˜1 mL of cell suspension was taken with a 1 mL syringe, after removing air bubbles, and the syringe was placed on an ice bag for use.
c, The nude mice were inoculated successively (the inoculated site was located on the right shoulder of the right back of the nude mice, and inoculated subcutaneously with 0.1 mL of cell suspension).
a, Tumor was measured on Day 14 to Day 16 after inoculation depending on the tumor growth, and tumor size was calculated.
Tumor volume calculation: tumor volume (mm^3)=length (mm)×width (mm)×width (mm)/2
b, According to the size of the tumor, the mice were grouped by random grouping.
c, According to the results of the grouping, the test drug was administered (administration method: oral administration, administration dose: 30 mg/kg, administration volume: 10 mL/kg, administration frequency: 2 times/day, […], vehicle: 0.5% CMC/1% Tween 80).
d, The tumor was measured and weighed twice a week after the test drug was administrated.
e, Animals were euthanized at the end of the test.

In series [7] the target is FGFR4 kinase (Homo sapiens (Human), UniProt P22455). The experiment in a line: Enzymologic experiment of FGFR4 (TR-FRET). The settings on record: FGFR4 kinase activity. In kind it is biochemical. The protocol: In this experiment, the inhibitory effect of the compounds on FGFR4 kinase activity was tested by a fluorescence resonance energy transfer (TR-FRET) method, and the half maximal inhibitory concentration (IC50) of the compounds on the FGFR4 kinase activity was determined.
2) 1˜5 μL of diluted solution in gradient of the compound was added.
3) 1˜5 μL of a substrate mixture containing substrate polypeptide with a final concentration of 5˜50 nM and ATP with a final concentration of 10˜200 μM was added.
4) The mixture was incubated for 0.5˜3 hours at room temperature.
5) 10 μL of EDTA and a test solution comprising labeled antibody were added, and the plate was incubated for 1 hour at room temperature.
7) The inhibition rates were calculated according to the fluorescence signal values.

[8] abbreviates: 72 h, read-out: Hep 3B IC50, Hep 3B cell proliferation, 72 hours, CellTiter-Glo.
The mark [9] stands for this setting: 216 h, 9 days of administration.
The mark [10] stands for this setting: SK-HEP1, SK-HEP-1 cell proliferation, 72 hours, CellTiter-Glo.
[11] abbreviates: Hep 3B cell proliferation, 72 hours, CellTiter-Glo, read-out: Hep 3B IC50.
The mark [12] stands for this setting: HuH-7 cell proliferation, 72 hours, CellTiter-Glo.
Where [13] appears, read: 336 h, 14 days of administration.

Like-named read-outs stand apart in the source and are kept apart here.

Chain of FGFR1 kinase (P11362 22-822): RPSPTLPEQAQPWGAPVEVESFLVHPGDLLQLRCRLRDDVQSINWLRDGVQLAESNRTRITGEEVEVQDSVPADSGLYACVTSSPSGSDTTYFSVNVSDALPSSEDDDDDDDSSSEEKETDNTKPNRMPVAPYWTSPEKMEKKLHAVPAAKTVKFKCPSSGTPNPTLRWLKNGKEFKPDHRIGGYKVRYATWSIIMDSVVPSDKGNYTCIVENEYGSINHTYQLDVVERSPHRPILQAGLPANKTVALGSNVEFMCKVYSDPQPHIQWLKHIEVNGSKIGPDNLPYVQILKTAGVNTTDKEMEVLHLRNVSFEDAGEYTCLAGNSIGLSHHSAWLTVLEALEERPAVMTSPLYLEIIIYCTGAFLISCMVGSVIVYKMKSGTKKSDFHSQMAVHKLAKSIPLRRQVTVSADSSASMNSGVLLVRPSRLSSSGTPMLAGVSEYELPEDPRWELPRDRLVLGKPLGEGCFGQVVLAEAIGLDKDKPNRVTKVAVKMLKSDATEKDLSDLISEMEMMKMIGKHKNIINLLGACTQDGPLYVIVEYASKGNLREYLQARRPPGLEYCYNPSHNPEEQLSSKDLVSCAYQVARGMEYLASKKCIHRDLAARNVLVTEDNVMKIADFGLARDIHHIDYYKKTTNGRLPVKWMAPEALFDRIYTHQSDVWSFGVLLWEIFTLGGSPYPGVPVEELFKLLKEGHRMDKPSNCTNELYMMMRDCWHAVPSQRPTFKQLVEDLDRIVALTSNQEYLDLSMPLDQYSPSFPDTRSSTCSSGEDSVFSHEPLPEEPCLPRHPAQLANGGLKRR
Chain of FGFR4 kinase (P22455 22-802): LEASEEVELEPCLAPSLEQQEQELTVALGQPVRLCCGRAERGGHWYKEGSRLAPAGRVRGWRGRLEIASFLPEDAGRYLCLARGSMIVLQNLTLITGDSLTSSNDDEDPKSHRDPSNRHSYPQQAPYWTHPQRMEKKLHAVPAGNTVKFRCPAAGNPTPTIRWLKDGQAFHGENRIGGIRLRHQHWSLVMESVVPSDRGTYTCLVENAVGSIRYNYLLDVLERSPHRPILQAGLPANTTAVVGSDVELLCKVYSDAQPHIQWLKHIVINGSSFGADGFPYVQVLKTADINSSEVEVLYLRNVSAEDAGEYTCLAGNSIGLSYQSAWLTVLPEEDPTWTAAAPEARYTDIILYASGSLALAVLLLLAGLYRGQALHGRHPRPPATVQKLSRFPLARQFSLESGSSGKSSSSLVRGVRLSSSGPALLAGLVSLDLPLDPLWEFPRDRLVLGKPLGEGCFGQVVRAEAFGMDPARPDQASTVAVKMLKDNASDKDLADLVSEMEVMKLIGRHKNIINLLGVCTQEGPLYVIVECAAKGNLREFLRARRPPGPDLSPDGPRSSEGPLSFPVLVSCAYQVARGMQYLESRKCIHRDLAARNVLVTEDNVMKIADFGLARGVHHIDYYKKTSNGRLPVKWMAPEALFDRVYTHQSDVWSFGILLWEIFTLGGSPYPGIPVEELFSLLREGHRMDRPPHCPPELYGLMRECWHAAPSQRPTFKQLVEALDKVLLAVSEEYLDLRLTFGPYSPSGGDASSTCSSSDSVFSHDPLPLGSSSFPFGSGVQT

In the case of `COCCNc1cc(NC(=O)N2CCCc3cc(CN4CCCOCC4=O)c(C=O)nc32)ncc1C#N` [Example 6], in series [1], the IC50 was above 10000 nM. The IC50 in series [2] (SK-HEP1, 72 h) is above 10000 nM. For the same molecule, in series [3], the Peak Time tmax stood at 2 h, the AUC(0-t) stood at 9120 ng·h/mL, the AUC(0-inf) was determined as 9140 ng·h/mL and the half-life was 0.9 h. Also, in series [3], the MRT stood at 1 h and the Cmax was found to be 3500 ng/mL. Further, the IC50 in series [4] (setting [8]) is 1.1 nM. Moreover, the IC50 in series [5] (Huh-7, 72 h) stood at 7.4 nM. Also, the inhibition in vivo at 30 mg/kg in series [6] (setting [9]) stood at 78.2%.

Take `COCCNc1cc(NC(=O)N2CCCc3cc(CN4CCCCOC4=O)c(C=O)nc32)ncc1C#N` [Example 23, N-(5-Cyano-4-((2-methoxyethyl)amino)pyridin-2-yl)-7-formyl-6-((2-carbonyl-1,3-oxazepin-3-yl)methyl)-3,4-dihydro-1,8-naphthyridin-1(2H)-carboxamide]: in series [2] (SK-HEP1, 72 h), the IC50 was above 10000 nM. Moreover, in series [3], the Peak Time tmax amounted to 2 h, the AUC(0-t) worked out at 9110 ng·h/mL, the AUC(0-inf) came out at 9110 ng·h/mL and the half-life is 1.02 h. In series [3], the MRT worked out at 3.5 h and the Cmax was determined as 2310 ng/mL. Also, the IC50 in series [4] (setting [8]) is 4.6 nM. For the same molecule, in series [5] (Huh-7, 72 h), the IC50 turned out to be 6.7 nM. Moreover, the inhibition in vivo at 30 mg/kg in series [6] (240 h, 10 days of administration) came out at 89.8%.

Take `COC[C@@H](C)Nc1cc(NC(=O)N2CCCc3cc(CN4CCCCOC4=O)c(C=O)nc32)ncc1C#N` [Example 29]: the IC50 in series [2] (setting [10]) is above 10000 nM. In addition, in series [3], the “Mean Residence Time MRT” value is 2.48 h, the Peak Time tmax turned out to be 2 h, the AUC(0-t) is 9460 ng·h/mL and the AUC(0-inf) came out at 9460 ng·h/mL. Further, in series [3], the half-life is 1.27 h and the Cmax worked out at 3380 ng/mL. The IC50 in series [4] (setting [11]) is 0.6 nM. The IC50 in series [5] (setting [12]) is 2.6 nM. Further, in series [6] (setting [13]), the inhibition in vivo at 30 mg/kg worked out at 182%.

`COC[C@@H](C)Oc1cc(NC(=O)N2CCCc3cc(CN4C(=O)OCC45CC5)c(C=O)nc32)ncc1C#N` [Example 42, (R)-N-(5-Cyano-4-((1-methoxypropan-2-yl)oxy)pyridin-2-yl)-7-formyl-6-((5-carbonyl-6-oxa-4-azaspiro[2.4]heptan-4-yl)methyl)-3,4-dihydro-1,8-naphthyridin-1(2H) -carboxamide] came in with an IC50 in series [1] above 10000 nM. Moreover, in series [2] (setting [10]), the IC50 is above 10000 nM. Moreover, in series [3], the Peak Time tmax came to 2 h, the AUC(0-t) turned out to be 6670 ng·h/mL, the AUC(0-inf) stood at 6790 ng·h/mL and the half-life was 1.06 h. Also, in series [3], the MRT amounted to 2.21 h and the Cmax stood at 2140 ng/mL. Besides, the IC50 in series [4] (setting [11]) turned out to be 6.7 nM. For the same molecule, the IC50 in series [5] (setting [12]) stood at 8.4 nM. Moreover, the IC50 in series [7] is 2.3 nM. Besides, the inhibition in vivo at 30 mg/kg in series [6] (setting [13]) is 103%.

`N#Cc1cnc(NC(=O)N2CCCc3cc(CN4CCOCC4=O)c(C=O)nc32)cc1S[C@H]1CCOC1` [Example 55, (S)-N-(5-Cyano-4-((tetrahydrofuran-3-yl)thio)pyridin-2-yl)-7-formyl-6-((3-carbonylmorpholino)methyl)-3,4-dihydro-1,8-naphthyridin-1(2H)-carboxamide] displayed an IC50 in series [1] above 10000 nM. Besides, the IC50 in series [2] (SK-HEP1, 72 h) was above 10000 nM. For the same molecule, in series [3], the Peak Time tmax was 4 h, the AUC(0-t) was 1940 ng·h/mL, the AUC(0-inf) stood at 1950 ng·h/mL and the half-life is 0.79 h. In addition, in series [3], the Cmax was 2340 ng/mL. In addition, the IC50 in series [4] (setting [8]) came to 14.5 nM. For the same molecule, the IC50 in series [5] (Huh-7, 72 h) turned out to be 36.1 nM. In addition, the inhibition in vivo at 30 mg/kg in series [6] (setting [9]) was found to be 33%.

Regarding `N#Cc1cnc(NC(=O)N2CCCc3cc(CN4CCOCC4=O)c(C=O)nc32)cc1S[C@@H]1CCOC1` [Example 56, (R)-N-(5-Cyano-4-((tetrahydrofuran-3-yl)thio)pyridin-2-yl)-7-formyl-6-((3-carbonylmorpholino)methyl)-3,4-dihydro-1,8-naphthyridin-1(2H)-carboxamide], the IC50 in series [1] is above 10000 nM. The IC50 in series [2] (SK-HEP1, 72 h) is above 10000 nM. Also, in series [3], the Peak Time tmax was 4 h, the AUC(0-t) worked out at 6650 ng·h/mL, the AUC(0-inf) amounted to 6780 ng·h/mL and the half-life is 0.96 h. In addition, the Cmax in series [3] was 1640 ng/mL. Besides, in series [4] (setting [8]), the IC50 is 22.7 nM. The IC50 in series [5] (Huh-7, 72 h) stood at 50.1 nM. Further, the inhibition in vivo at 30 mg/kg in series [6] (setting [9]) came to 46.4%.

Regarding `CO[C@H]1CCC[C@@H]1Nc1cc(NC(=O)N2CCCc3cc(CN4CCOCC4=O)c(C=O)nc32)ncc1C#N` [Example 59, N-(5-Cyano-4-(((1S,2S)-2-methoxycyclopentyl)amino)pyridin-2-yl)-7-formyl-6-((3-carbonylmorpholino)methyl)-3,4-dihydro-1,8-naphthyridin-1(2H)-carboxamide], in series [1], the IC50 was above 10000 nM. Also, the IC50 in series [2] (SK-HEP1, 72 h) is above 10000 nM. Further, in series [3], the Peak Time tmax amounted to 2 h, the AUC(0-t) was determined as 1260 ng·h/mL, the AUC(0-inf) is 1260 ng·h/mL and the half-life was 0.86 h. Further, in series [3], the MRT is 2.23 h and the Cmax was 2060 ng/mL. Further, the IC50 in series [4] (setting [8]) came to 8.6 nM. For the same molecule, the IC50 in series [5] (Huh-7, 72 h) was 18.7 nM. Further, the inhibition in vivo at 30 mg/kg in series [6] (setting [9]) came out at 86.7%.

Take `COCCNc1cc(NC(=O)N2CCCc3cc(CN4CCN(C5CC5)CC4=O)c(C=O)nc32)ncc1C#N` [Example 65]: in series [1], the IC50 was above 10000 nM. For the same molecule, the IC50 in series [2] (setting [10]) was above 10000 nM. Further, in series [3], the Peak Time tmax stood at 2 h, the AUC(0-t) came out at 2910 ng·h/mL, the AUC(0-inf) came out at 3390 ng·h/mL and the half-life is 1.02 h. For the same molecule, in series [3], the MRT worked out at 3.72 h and the Cmax stood at 3180 ng/mL. For the same molecule, the IC50 in series [4] (setting [11]) worked out at 4.3 nM. For the same molecule, the IC50 in series [5] (setting [12]) came out at 15.2 nM. The same molecule had an IC50 in series [7] of 1.62 nM. For the same molecule, the inhibition in vivo at 30 mg/kg in series [6] (setting [13]) was determined as 130%.

The record behind these values is US11667631B2, “FGFR4 inhibitor, preparation method therefor, and applications thereof” (Jiangsu Hansoh Pharmaceutical Group Co., Ltd., priority 2016, dated 2023).
